Results taken from ChEMBL document CHEMBL5143603, “Discovery of novel 2,8-diazaspiro[4.5]decan-1-one derivatives as potent RIPK1 kinase inhibitors” (Bioorg Med Chem, 2022).

How the values were obtained:
[1] = test system: U-937; test: Anti-necroptotic activity in human U-937 cells assessed as inhibition of LPS/Z-VAD-fmk (LSZ)-induced necroptosis preincubated with PMA followed by compound addition and measured after 9 hrs by CCK8 assay; assay type: functional, cell-based; conditions: DDE = dose-dependent effect
[2] = test system: U-937; test: Anti-necroptotic activity in human U-937 cells assessed as decrease in phosphorylation of MLKL level preincubated with PMA and LPS followed by compound addition and measured after 9 hrs by western blot analysis; assay type: functional, cell-based; conditions: DDE = dose-dependent effect
[3] = molecular target: T1, Receptor-interacting serine/threonine-protein kinase 1 (Homo sapiens, UniProt Q13546); test: Inhibition of human RIPK1 incubated for 40 min in presence of ATP by ADP-Glo luminescence kinase assay
T1 sequence (Q13546 whole entry): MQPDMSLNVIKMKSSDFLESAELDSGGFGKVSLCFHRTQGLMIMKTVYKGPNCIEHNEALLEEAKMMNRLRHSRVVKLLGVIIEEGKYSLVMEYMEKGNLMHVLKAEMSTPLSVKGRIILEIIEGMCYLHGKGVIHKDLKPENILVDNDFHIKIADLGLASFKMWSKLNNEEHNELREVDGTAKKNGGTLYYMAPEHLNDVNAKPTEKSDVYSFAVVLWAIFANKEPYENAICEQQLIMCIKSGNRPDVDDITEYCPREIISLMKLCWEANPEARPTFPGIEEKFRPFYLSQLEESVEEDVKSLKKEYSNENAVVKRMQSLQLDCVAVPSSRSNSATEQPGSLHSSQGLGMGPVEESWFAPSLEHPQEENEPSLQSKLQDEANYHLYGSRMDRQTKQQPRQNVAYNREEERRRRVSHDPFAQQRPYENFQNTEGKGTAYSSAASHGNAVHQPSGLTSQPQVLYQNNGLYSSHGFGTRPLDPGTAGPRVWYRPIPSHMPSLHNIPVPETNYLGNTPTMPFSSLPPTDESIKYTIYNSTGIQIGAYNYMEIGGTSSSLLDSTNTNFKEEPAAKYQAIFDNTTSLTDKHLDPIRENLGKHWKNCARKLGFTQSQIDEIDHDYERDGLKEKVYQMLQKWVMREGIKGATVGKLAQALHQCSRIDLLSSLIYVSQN

Row | IC50 [3] [nM] | Compound | Activity [1] | Activity [2]
1 |  | Cn1ccc2ccc(C(=O)N3CCC4(CC3)CCN(Cc3cc(F)ccc3F)C4=O)cc21 | Dde | Dde
2 | 298 | CCC(C)(C)C(=O)N(O)Cc1ccccc1 |  | 
3 | 1010 | O=C(c1ccccc1)N1CCC2(CC1)CN(Cc1ccccc1)C2=O |  | 
4 | 1140 | CN1C(=O)C(Cc2c[nH]c3ccccc23)NC1=S (stereo not given) [NECROSTATIN] |  | 
